Measurements published in patent USRE38828E1, “Parevins and tachytegrins” (IntraBiotics Pharmaceuticals, Inc., priority 1995, dated 2005).
In brackets after ≈: the same amount, converted by molar mass. Bridge positions count the residues as written; N and C are the ends. Square brackets hold non-standard residues; d marks the D form. Ends that are not written are not given here. Peptide text beside a SMILES is read from it. Sar = CNCC(=O)O

Legend:
[1] = system: Staphylococcus aureus (MRSA); format: cell-based
Procedure: (§1) The radial diffusion assay in agarose gels is conducted using radiodiffusion and gel overlay techniques as described by Lehrer, R. I. et al. J Immunol Meth (1991) 137:167-173. […] In some cases, the underlay was supplemented with 100 mM NaCl. The units of activity in the radial diffusion assay were measured as described; 10 units correspond to a 1 mm diameter clear zone around the sample well. FIGS. 1-6 show the results against five test organisms in units described as above. A synthetic protegrin (PG-1) containing two cystines (sPG-1) or PG-1 in linear form were used as controls.
(§2) Several illustrative tachytegrins were synthesized as described in Example 1 and tested for activity against Staphylococcus aureus (MRSA), Pseudomonas (Psa), VREF, Candida and E. coli as described in Example 2. The results shown in Table 1 as minimal inhibitory concentration (MIC) in ug/ml were obtained with the C-terminal amidated forms except for the last two which were tested as the free acids, as indicated by *. In all peptides in Table 1, X is MeGly.

[2] = system: VREF; format: cell-based
Procedure: as §1, §2

[3] = system: Pseudomonas (Psa); experiment: minimal inhibitory concentration, Pseudomonas; format: cell-based; conditions: C-terminal amidated forms except * (free acids)
Procedure: as §1, §2

[4] = system: E. coli ML-35p; experiment: radial diffusion assay in agarose gels, E. coli; format: cell-based
Procedure: Media for testing antimicrobial activity are designed to mimic certain specific conditions. The standard buffer medium, medium A, uses an underlay agar with the following composition: 0.3 mg/ml of trypticase soy broth powder, 1% w/v agarose and 10 mM sodium phosphate buffer (final pH 7.4). This will be designated either “medium A” or “standard in vitro conditions” herein.
A second medium contains 100 mM NaCl in order to mimic the salt levels in blood and tissue fluids. This will be designated “medium B” or “salt medium” herein.
as §1

[5] = system: T. vaginallis strain C1 (ATCC 30001); experiment: Trichomonas vaginalis motility, lysis and growth; format: cell-based, Trichomonas vaginallis
Procedure: For Trichomonas vaginallis, strain C1 (ATCC 30001) is grown as described by Gorrell, T. E. et al., Carlsberg Res Comm (1984) 49:259-268. […] Soon thereafter, the organisms become permeable to trypan blue, and, over the ensuing 15-30 minutes, lyse. As expected, such organisms fail to grow when introduced into their customary growth medium (Diamond's medium).

[6] = system: E. coli; format: cell-based
Procedure: as §1, §2

[7] = FIG. 1, E. coli, in the absence of salt
[8] = FIG. 1, E. coli, in the presence of 100 mM NaCl
[9] = FIG. 4, E. coli ML-35p, in the absence of salt
[10] = FIG. 4, E. coli ML-35p, in the presence of 100 mM NaCl

## CC(C)C[C@@H]1NC(=O)[C@@H](NC(=O)CNC(=O)CNC(=O)[C@@H](N)CCCNC(=N)N)CSSC[C@@H](C(=O)N[C@@H](CCCNC(=N)N)C(=O)O)NC(=O)[C@H](C(C)C)NC(=O)[C@H](CCCNC(=N)N)NC(=O)[C@H](C(C)C)NC(=O)[C@H](C)NC(=O)[C@H](Cc2ccccc2)NC(=O)[C@H](CCCNC(=N)N)NC(=O)CNC(=O)[C@H](C(C)C)NC(=O)[C@H](C)NC(=O)[C@H](Cc2ccc(O)cc2)NC(=O)[C@H](CCCNC(=N)N)NC1=O [RGGCLRYAVGRFAVRVCR] (H-RGGCLRYAVGRFAVRVCR-OH; disulfide 4-17; N-terminus assumed)
[1]
  minimal inhibitory concentration (MIC) MRSA: >32 µg/mL
[2]
  minimal inhibitory concentration (MIC) VREF: 5.3 µg/mL (≈ 2.6 µM)

## CC(C)C[C@@H]1NC(=O)[C@@H](NC(=O)CNC(=O)CNC(=O)[C@@H](N)CCCNC(=N)N)CSSC[C@@H](C(=O)N[C@@H](CCCNC(=N)N)C(N)=O)NC(=O)[C@H](C(C)C)NC(=O)[C@H](CCCNC(=N)N)NC(=O)[C@H](C(C)C)NC(=O)[C@H](C)NC(=O)[C@H](Cc2ccccc2)NC(=O)[C@H](CCCNC(=N)N)NC(=O)CN(C)C(=O)[C@H](CCCNC(=N)N)NC(=O)[C@H](C)NC(=O)[C@H](Cc2ccc(O)cc2)NC(=O)[C@H](CCCNC(=N)N)NC1=O [RGGCLRYARXRFAVRVCR] (H-RGGCLRYAR[Sar]RFAVRVCR-NH2; disulfide 4-17 (inferred); N-terminus assumed)
[1]
  minimal inhibitory concentration (MIC) MRSA: >32 µg/mL
[3]
  minimal inhibitory concentration (MIC) Paa: 5.7 µg/mL (≈ 2.7 µM)

## trans-parevin: parevin with disulfide bridges C5-C16 and C8-C13 (RGGRCLYCRRRFCVVCGR; disulfide 8-13, 5-16)
[4]; [7]
  antibacterial activity, radial diffusion (effectiveness): slightly more effective than sPG-1 although slightly less effective than linear PG-1
[4]; [8]
  antibacterial activity, radial diffusion (effectiveness): comparably effective
[4]; [9]
  antibacterial activity, radial diffusion (effectiveness): comparably effective in the absence of salt and both were more effective than sPG-1
[4]; [10]
  antibacterial activity, radial diffusion (effectiveness): maintained their effectiveness and were comparable

## CC(C)C[C@@H]1NC(=O)[C@@H](NC(=O)CNC(=O)CNC(=O)[C@@H](N)CCCNC(=N)N)CSSC[C@@H](C(=O)N[C@@H](CCCNC(=N)N)C(N)=O)NC(=O)[C@H](C(C)C)NC(=O)[C@H](CCCNC(=N)N)NC(=O)[C@H](C(C)C)NC(=O)[C@H](C)NC(=O)[C@H](Cc2ccccc2)NC(=O)[C@H](CCCNC(=N)N)NC(=O)[C@@H]2CCCN2C(=O)[C@H](C(C)C)NC(=O)[C@H](C)NC(=O)[C@H](Cc2ccc(O)cc2)NC(=O)[C@H](CCCNC(=N)N)NC1=O [RGGCLRYAVPRFAVRVCR] (H-RGGCLRYAVPRFAVRVCR-NH2; disulfide 4-17; N-terminus assumed)
[1]
  minimal inhibitory concentration (MIC) MRSA: >128 µg/mL
[3]
  minimal inhibitory concentration (MIC) Paa: 0.05 µg/mL (≈ 0.0241 µM)

## PG-1: protegrin PG-1 (RGGRLCYCRRRFCVCVGR; ends and bridges not checked; also: two disulfide bonds, pairing not given here; UniProt P32194 131-148, looked up)
[5]; 50 ug/ml, RPMI+1% heat-activated fetal calf serum, within a few minutes after exposure
  motility of T. vaginallis: becomes stationary
[5]; 50 ug/ml, over the ensuing 15-30 minutes
  lysis of T. vaginallis: lyse
[5]; after exposure to 50 ug/ml
  growth of exposed organisms in Diamond's medium: fail to grow

## CC(C)C[C@@H]1NC(=O)[C@@H](NC(=O)[C@H](Cc2ccccc2)NC(=O)CNC(=O)[C@@H](N)CCCNC(=N)N)CSSC[C@@H](C(=O)N[C@H](C(=O)N[C@@H](CCCNC(=N)N)C(=O)O)C(C)C)NC(=O)[C@H](Cc2ccccc2)NC(=O)[C@H](CCCNC(=N)N)NC(=O)[C@H](C(C)C)NC(=O)CN(C)C(=O)[C@H](Cc2ccccc2)NC(=O)[C@H](CCCNC(=N)N)NC(=O)CNC(=O)[C@H](C(C)C)NC(=O)CN(C)C(=O)[C@H](Cc2ccc(O)cc2)NC(=O)[C@H](CCCNC(=N)N)NC1=O [RGFCLRYXVGRFXVRFCVR] (H-RGFCLRY[Sar]VGRF[Sar]VRFCVR-OH; disulfide 4-17 (inferred); N-terminus assumed)
[1]
  minimal inhibitory concentration (MIC) MRSA: >32 µg/mL
[2]
  minimal inhibitory concentration (MIC) VREF: 12 µg/mL (≈ 5.28 µM)

## CC(C)C[C@@H]1NC(=O)[C@@H](NC(=O)[C@H](Cc2ccccc2)NC(=O)CNC(=O)[C@@H](N)CCCNC(=N)N)CSSC[C@@H](C(=O)N[C@H](C(=O)N[C@@H](CCCNC(=N)N)C(N)=O)C(C)C)NC(=O)[C@H](Cc2ccccc2)NC(=O)[C@H](CCCNC(=N)N)NC(=O)[C@H](C(C)C)NC(=O)[C@H]([C@@H](C)O)NC(=O)[C@H](Cc2ccccc2)NC(=O)[C@H](CCCNC(=N)N)NC(=O)[C@@H]2CCCN2C(=O)[C@H](C(C)C)NC(=O)[C@H]([C@@H](C)O)NC(=O)[C@H](Cc2ccc(O)cc2)NC(=O)[C@H](CCCNC(=N)N)NC1=O [RGFCLRYTVPRFTVRFCVR] (H-RGFCLRYTVPRFTVRFCVR-NH2; disulfide 4-17; N-terminus assumed)
[6]
  minimal inhibitory concentration (MIC) E. Coli: 0.99 µg/mL (≈ 0.417 µM)
[1]
  minimal inhibitory concentration (MIC) MRSA: 1.88 µg/mL (≈ 0.792 µM)
[3]
  minimal inhibitory concentration (MIC) Paa: 0.57 µg/mL (≈ 0.24 µM)

## PG-3: protegrin PG-3 (RGGGLCYCRRRFCVCVGR; ends and bridges not checked; cysteine pairing not given here; UniProt P32196 131-148, looked up)
[5]; 25 ug/ml
  motility of T. vaginallis: retain their motility

## tachytegrin: tachytegrin with disulfide bridges C4-C17 and C8-C13 (RGGCRLYCRRRFCVVGCR; disulfide 8-13, 4-17)
[4]; [7]
  antibacterial activity, radial diffusion (effectiveness): slightly more effective than sPG-1 although slightly less effective than linear PG-1
[4]; [8]
  antibacterial activity, radial diffusion (effectiveness): comparably effective

## cis-parevin: parevin with disulfide bridges C5-C8 and C13-C16 (RGGRCLYCRRRFCIVCG; disulfide 13-16, 5-8)
[4]; [9]
  antibacterial activity, radial diffusion (effectiveness): comparably effective in the absence of salt and both were more effective than sPG-1
[4]; [10]
  antibacterial activity, radial diffusion (effectiveness): maintained their effectiveness and were comparable

## CC(C)C[C@@H]1NC(=O)[C@@H](NC(=O)[C@H](Cc2ccccc2)NC(=O)CNC(=O)[C@@H](N)CCCNC(=N)N)CSSC[C@@H](C(=O)N[C@@H](CCCNC(=N)N)C(N)=O)NC(=O)[C@H](C(C)C)NC(=O)[C@H](Cc2ccccc2)NC(=O)[C@H](CCCNC(=N)N)NC(=O)[C@H](C(C)C)NC(=O)CN(C)C(=O)[C@H](Cc2ccccc2)NC(=O)[C@H](CCCNC(=N)N)NC(=O)CNC(=O)[C@H](C(C)C)NC(=O)CN(C)C(=O)[C@H](Cc2ccc(O)cc2)NC(=O)[C@H](CCCNC(=N)N)NC1=O [RGFCLRYXVGRFXVRFVCR] (H-RGFCLRY[Sar]VGRF[Sar]VRFVCR-NH2; disulfide 4-18 (inferred); N-terminus assumed)
[1]
  minimal inhibitory concentration (MIC) MRSA: >54 µg/mL
